Active and inactive are the calls of the source. No cut-off for these calls is given here.

Data set [1] is described as follows: Inhibition of amyloid beta (1-40) self-aggregation at 25 uM by thioflavin T fluorescence assay.
The subject of data set [2] is HepG2. Nature of the data set: Cytotoxicity against human HepG2 cells assessed as LDH release at 10 uM after 24 hrs. The format is cell-based. The settings on record: hepg2, 24 h.
Data set [3] in a line: Cytotoxicity against human HepG2 cells assessed as cell viability at 10 uM after 24 hrs. The following applies: read-out: Activity. The format is cell-based.
Another data set addresses T1, Acetylcholinesterase (Bos taurus, UniProt P23795).
T1 sequence (P23795 whole entry): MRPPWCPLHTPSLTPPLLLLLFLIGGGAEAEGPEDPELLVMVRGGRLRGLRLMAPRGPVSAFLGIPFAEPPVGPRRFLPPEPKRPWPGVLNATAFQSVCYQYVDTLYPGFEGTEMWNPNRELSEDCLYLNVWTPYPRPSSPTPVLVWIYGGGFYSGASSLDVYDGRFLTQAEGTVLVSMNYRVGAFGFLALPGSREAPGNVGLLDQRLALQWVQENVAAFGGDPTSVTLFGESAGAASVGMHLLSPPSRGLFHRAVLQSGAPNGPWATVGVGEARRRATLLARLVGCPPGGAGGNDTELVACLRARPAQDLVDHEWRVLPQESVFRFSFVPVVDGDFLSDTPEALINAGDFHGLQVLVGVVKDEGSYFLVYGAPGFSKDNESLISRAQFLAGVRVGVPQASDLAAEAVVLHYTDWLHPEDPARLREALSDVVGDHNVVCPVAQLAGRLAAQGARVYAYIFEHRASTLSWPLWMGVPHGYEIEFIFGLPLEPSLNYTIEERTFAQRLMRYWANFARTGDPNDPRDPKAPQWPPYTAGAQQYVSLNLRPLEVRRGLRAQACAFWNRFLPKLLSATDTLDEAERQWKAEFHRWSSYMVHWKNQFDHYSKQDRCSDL

The nature of data set [4]: Cytotoxicity against human SH-SY5Y cells assessed as cell viability at 10 uM after 24 hrs. Type of data set: cell-based. The following applies: read-out: Activity.
Data set [5] addresses Cholinesterase (Equus caballus) (UniProt P81908). Briefly: Inhibition of equine serum BChE at 100 uM by Ellman's method.
In data set [6] the test system is SH-SY5Y. Briefly: Cytotoxicity against human SH-SY5Y cells assessed as LDH release at 100 uM after 24 hrs. The format is cell-based.
Data set [7] in a line: Cytotoxicity against human HepG2 cells assessed as cell viability at 100 uM after 24 hrs. Type of data set: cell-based. The settings on record: read-out: Activity.
The subject of data set [8] is SH-SY5Y. Briefly: Cytotoxicity against human SH-SY5Y cells assessed as LDH release at 10 uM after 24 hrs. Type of data set: cell-based.
The nature of data set [9]: Cytotoxicity against human SH-SY5Y cells assessed as cell viability at 100 uM after 24 hrs. The following applies: read-out: Activity. Type of data set: cell-based.
For data set [10], the system named is HepG2. Nature of the data set: Cytotoxicity against human HepG2 cells assessed as LDH release at 100 uM after 24 hrs. The format is cell-based. The following applies: hepg2, 24 h.

Cholinesterase (Equus caballus), sequence (P81908 whole entry): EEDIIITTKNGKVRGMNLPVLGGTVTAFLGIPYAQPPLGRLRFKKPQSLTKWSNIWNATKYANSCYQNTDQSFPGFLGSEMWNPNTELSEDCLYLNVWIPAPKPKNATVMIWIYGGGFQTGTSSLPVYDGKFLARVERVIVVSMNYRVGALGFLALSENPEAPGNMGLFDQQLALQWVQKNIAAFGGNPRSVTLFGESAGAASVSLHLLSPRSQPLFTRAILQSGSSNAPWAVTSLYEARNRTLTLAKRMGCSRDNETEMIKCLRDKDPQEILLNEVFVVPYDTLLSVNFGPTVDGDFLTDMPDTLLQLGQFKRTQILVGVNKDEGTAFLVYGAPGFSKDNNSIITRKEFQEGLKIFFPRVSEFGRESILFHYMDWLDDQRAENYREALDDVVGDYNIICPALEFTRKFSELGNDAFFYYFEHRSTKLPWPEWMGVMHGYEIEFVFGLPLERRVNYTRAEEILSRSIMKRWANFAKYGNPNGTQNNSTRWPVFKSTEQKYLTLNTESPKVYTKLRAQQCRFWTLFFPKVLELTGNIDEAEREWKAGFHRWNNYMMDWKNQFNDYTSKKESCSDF
Description for Acetylcholinesterase: Inhibition of bovine AChE by Elman's method

In data set [1], `O=c1cc2c3c4c(cc[n+]3CCC2)c2ccccc2n14.[Cl-]` [INFRACTOPICRIN] yielded an inhibition of 50%. For the same compound, the Activity was 2.23% with HepG2 [2], 1.33% in the data set on SH-SY5Y [6], -0.07% in the data set on SH-SY5Y [8] and 1.48% in the data set on HepG2 [10]. Further, the viability at 24 h, 10 µM stood at 100% in data set [3] and 97.1% in [4]. The same compound came in with an IC50 on Acetylcholinesterase of 9.72 µM. Further, the inhibition entry in data set [5] is “inactive”. The viability at 24 h, 100 µM was 99.1% in [7] and 97.7% in [9].

`O=c1cc2c3c4c(cc[n+]3CCC2)c2cc(O)ccc2n14.[Cl-]`: the inhibition entry in [1] is “Active”. In addition, the Activity in the data set on HepG2 [2] was 0.13%; with SH-SY5Y [6], 0.97%; in the data set with SH-SY5Y [8], -1.86%; with HepG2 [10] it was 0.56%. Moreover, the viability at 24 h, 10 µM in [3] stood at 98.7%; in [4], 96.7%. This compound also displayed an IC50 against Acetylcholinesterase of 12.7 µM. For the same compound, in [5], the inhibition entry was “inactive”. In addition, the figures for the viability at 24 h, 100 µM in [7] and in [9] were 101% and 98.3%, respectively.

Source of the values: ChEMBL document CHEMBL1157629, “Acetylcholinesterase inhibitors from the toadstool Cortinarius infractus” (Bioorg Med Chem, 2010).
